In patent US7250157B2, “Dermatological compositions and methods” (Applied Genetics Incorporated Dermatics, priority 1996, dated 2007):
Structures can show the parent of a compound that is named as a salt.

tested on: tyrosinase activity in S91 mouse melanoma cells; assay: Induction of tyrosinase activity in S91 cells; conditions: not given

Row | Compound | effect on induction of tyrosinase by 5-NBene-2,2-DM in S91 cells (in words) | induction of tyrosinase in S91 cells compared with 5-NBene-2,2-DM (FIG. 2) | effect on induction of melanogenesis by 5-NBene-2,2-DM in S91 cells (in words)
1 | Catalase [reference compound] | did not inhibit the action of 5-NBene-2,2-DM |  | 
2 | OCC1(CO)CC2CCC1C2 (stereo not drawn) [NBane-2,2-DM, norbornane-2,2-dimethanol] |  | equivalent potency | 
3 | C1CC2CCC1C2 [NBane, Norbornane] |  | Lesser induction | 
4 | Cl.Cl.O=S(=O)(NCCNCC=Cc1ccc(Br)cc1)c1cccc2cnccc12 [H-89, reference compound] | augmentation of basal and 5-NBene-2,2-DM-induced tyrosinase levels |  | 
5 | COC(=O)[C@@]1(OC)C[C@H]2O[C@]1(C)n1c3ccccc3c3c4c(c5c6ccccc6n2c5c31)C(=O)N(C)C4 [KT5823, reference compound] |  |  | reduced induction of melanogenesis by 5-NBene-2,2-DM
6 | OC1CC2CCC1C2 (stereo not drawn) [α-NBane-ol, α-Norborneol] |  | Lesser induction | 

same assay, conditions: 1 uM H-89

Row | Compound | Tyrosinase Relative to Control | Tyrosinase dpm/hr/ug Protein
7 | Cl.Cl.O=S(=O)(NCCNCC=Cc1ccc(Br)cc1)c1cccc2cnccc12 [H-89, reference compound] | 1.3X | 507 dpm/hr/ug Protein

same assay, conditions: 1000 nM S-EITU

Row | Compound | tyrosinase activity in S91 cells (in words)
8 | CCSC(=N)N [S-EITU, S-ethylisothiourea, reference compound] | complete ablation of tyrosinase activity

same assay, conditions: 10 uM H-89

Row | Compound | Tyrosinase Relative to Control | Tyrosinase dpm/hr/ug Protein
9 | Cl.Cl.O=S(=O)(NCCNCC=Cc1ccc(Br)cc1)c1cccc2cnccc12 [H-89, reference compound] | 3.1X | 1236 dpm/hr/ug Protein

same assay, conditions: 0.5 mM (Table 16)

Row | Compound | Fold Induction of Tyrosinase Relative to Controls
10 | 1-(exo & endo-2-norbornyl-)-propan-1,2-diol | 2.2X

same assay, conditions: 0.5 mM (Table 19)

Row | Compound | Fold Induction of Tyrosinase Relative to Controls
11 | CC1(C)C2CCC1(C)C(O)C2O (stereo not drawn) [2,3-trans-bornanediol] | 4.7X
12 | CC1=CC[C@@H](C(C)(C)O)CC1 [(−)-a-terpineol, (S)-p-menth-1-en-8-ol] | 6.2X
13 | CC(C)[C@H]1CC[C@H](C)C[C@@H]1O [(1S,2R,5S)-(+)-menthol, (1S,2R,5S)-2-isopropyl-5-methylcyclohexanol] | 0.7X
14 | 2,3-cis & trans-bornanediol | 9.9X
15 | C[C@@H]1CC[C@@H](C(C)(C)O)[C@H](O)C1 (relative stereo) [trans-p-menthane-3,8-diol] | 5.2X
16 | CC1(C)C2CCC1(C)C(O)C2 (stereo not drawn) [borneol] | 3.7X
17 | CC(C)[C@@H]1CC[C@@H](C)C[C@H]1O [(1R,2S,5R)-(−)-menthol, (1R,2S,5R)-2-isopropyl-5-methylcyclohexanol] | 2.0X
18 | CC1CCC2CC1C2(C)C [(1S)-(−)-α-pinane] | 1.4X
19 | CC1C(O)CC2CC1C2(C)C (single isomer, unassigned; (-)) [(−)-isopinocampheol] | 2.3X
20 | CC1CCC2CC1C2(C)C [(1R)-(−)-α-pinane] | 1.2X
21 | CC1=C[C@H](O)[C@H]2C[C@@H]1C2(C)C (relative stereo) [(S)-cis-verbenol] | 1.0X

same assay, conditions: 1 mM (Table 15)

Row | Compound | Fold Induction of Tyrosinase Relative to Controls
22 | O=C(O)[C@@H]1[C@H](C(=O)O)[C@@H]2C=C[C@H]1C2 [5-norbornene-2,3-cis/endodicarboxylic acid] | 2.2X
23 | O=COC1CC2CCC1C2 (racemic) [± exo-2-norbornyl formate] | 2.7X
24 | mono- & di-acetate 2,5 & 6,7-norbornanetriol | 1.5X
25 | O=C(O)CC1CC2CCC1C2 (stereo not drawn) [2-norbornaneacetic acid] | 4.6X
26 | 2,5 & 6,7-norbornanetriol | 5.1X

same assay, conditions: 1 mM (Table 16)

Row | Compound | Fold Induction of Tyrosinase Relative to Controls
27 | OC[C@@H]1CCCC[C@@H]1CO [1,2-cis-cyclohexanedimethanol] | 0.9X
28 | OCC1CCC(CO)CC1 (stereo not drawn) [1,4-cyclohexanedimethanol] | 1.2X
29 | 1-(exo & endo-2-norbornyl-)-propan-1,2-diol | 4.2X
30 | OCC1(CO)CC=CCC1 [3-cyclohexane-1,1-dimethanol] | 1.4X
31 | OC1CC2CCC1C2O (stereo not drawn) [2,7-norbornanediol] | 0.8X
32 | OCC1(O)CC2CCC1C2 (stereo not drawn) [2-hydroxy-2-norbornanemethanol] | 9.2X

same assay, conditions: 1 mM (Table 19)

Row | Compound | Fold Induction of Tyrosinase Relative to Controls
33 | CC1(C)C2CCC1(C)C(O)C2O (stereo not drawn) [2,3-trans-bornanediol] | 12.8X
34 | CC1=CC[C@@H](C(C)(C)O)CC1 [(−)-a-terpineol, (S)-p-menth-1-en-8-ol] | 7.1X
35 | CC(C)[C@H]1CC[C@H](C)C[C@@H]1O [(1S,2R,5S)-(+)-menthol, (1S,2R,5S)-2-isopropyl-5-methylcyclohexanol] | 1.3X
36 | 2,3-cis & trans-bornanediol | 37.3X
37 | CC1(C)C2CCC(CO)[C@]1(O)C2 (stereo in doubt) [(1R)-(−)-trans-pinane-1,10-diol] | 14.3X
38 | C[C@@H]1CC[C@@H](C(C)(C)O)[C@H](O)C1 (relative stereo) [trans-p-menthane-3,8-diol] | 13.2X
39 | CC1(C)[C@@H]2C[C@@H](O)[C@@](C)(O)[C@H]1C2 [(1S,2S,3R,5S)-(+)-pinanediol] | 9.9X
40 | CC1(C)C2CCC1(C)C(O)C2 (stereo not drawn) [borneol] | 2.1X
41 | CC(C)[C@@H]1CC[C@@H](C)C[C@H]1O [(1R,2S,5R)-(−)-menthol, (1R,2S,5R)-2-isopropyl-5-methylcyclohexanol] | 1.3X
42 | CC1CCC2CC1C2(C)C [(1S)-(−)-α-pinane] | 1.1X
43 | CC1C(O)CC2CC1C2(C)C (single isomer, unassigned; (-)) [(−)-isopinocampheol] | 3.3X
44 | CC1CCC2CC1C2(C)C [(1R)-(−)-α-pinane] | 0.8X
45 | CC1=C[C@H](O)[C@H]2C[C@@H]1C2(C)C (relative stereo) [(S)-cis-verbenol] | 3.0X

same assay, conditions: 2 mM (Table 15)

Row | Compound | Fold Induction of Tyrosinase Relative to Controls
46 | mono- & di-acetate 2,5 & 6,7-norbornanetriol | 3.0X
47 | 2,5 & 6,7-norbornanetriol | 5.1X

same assay, conditions: 2.5 mM (Table 16)

Row | Compound | Fold Induction of Tyrosinase Relative to Controls
48 | OC[C@@H]1CCCC[C@@H]1CO [1,2-cis-cyclohexanedimethanol] | 6.1X
49 | OCC1CCC(CO)CC1 (stereo not drawn) [1,4-cyclohexanedimethanol] | 1.7X
50 | 1-(exo & endo-2-norbornyl-)-propan-1,2-diol | 48.5X
51 | OCC1(CO)CC=CCC1 [3-cyclohexane-1,1-dimethanol] | 2.3X
52 | OC1CC2CCC1C2O (stereo not drawn) [2,7-norbornanediol] | 1.6X
53 | OCC1(O)CC2CCC1C2 (stereo not drawn) [2-hydroxy-2-norbornanemethanol] | 15.5X

same assay, conditions: 2.5 mM (Table 19)

Row | Compound | Fold Induction of Tyrosinase Relative to Controls | detachment of cells from culture dishes (no tyrosinase analysis)
54 | CC1(C)C2CCC1(C)C(O)C2O (stereo not drawn) [2,3-trans-bornanediol] | 22.1X | 
55 | CC1=CC[C@@H](C(C)(C)O)CC1 [(−)-a-terpineol, (S)-p-menth-1-en-8-ol] | 4.7X | 
56 | 2,3-cis & trans-bornanediol | 99.7X | 
57 | CC1(C)C2CCC(CO)[C@]1(O)C2 (stereo in doubt) [(1R)-(−)-trans-pinane-1,10-diol] | 96.0X | 
58 | C[C@@H]1CC[C@@H](C(C)(C)O)[C@H](O)C1 (relative stereo) [trans-p-menthane-3,8-diol] | 21.0X | 
59 | CC1(C)[C@@H]2C[C@@H](O)[C@@](C)(O)[C@H]1C2 [(1S,2S,3R,5S)-(+)-pinanediol] | 68.4X | 
60 | CC1(C)C2CCC1(C)C(O)C2 (stereo not drawn) [borneol] | 3.7X | 
61 | CC1CCC2CC1C2(C)C [(1S)-(−)-α-pinane] | 1.4X | 
62 | CC1C(O)CC2CC1C2(C)C (single isomer, unassigned; (-)) [(−)-isopinocampheol] |  | NA^2
63 | CC1CCC2CC1C2(C)C [(1R)-(−)-α-pinane] | 0.9X | 
64 | CC1=C[C@H](O)[C@H]2C[C@@H]1C2(C)C (relative stereo) [(S)-cis-verbenol] | 15.5X | 

same assay, conditions: 5 mM (Table 15)

Row | Compound | Fold Induction of Tyrosinase Relative to Controls
65 | O=C(O)[C@@H]1[C@H](C(=O)O)[C@@H]2C=C[C@H]1C2 [5-norbornene-2,3-cis/endodicarboxylic acid] | 1.0X
66 | O=COC1CC2CCC1C2 (racemic) [± exo-2-norbornyl formate] | 2.3X
67 | O=C(O)CC1CC2CCC1C2 (stereo not drawn) [2-norbornaneacetic acid] | 12.9X

same assay, conditions: 5 mM (Table 16)

Row | Compound | detachment of cells from culture dishes (no tyrosinase analysis) | Fold Induction of Tyrosinase Relative to Controls
68 | OC[C@@H]1CCCC[C@@H]1CO [1,2-cis-cyclohexanedimethanol] | NA^ | 
69 | OCC1CCC(CO)CC1 (stereo not drawn) [1,4-cyclohexanedimethanol] |  | 3.2X
70 | 1-(exo & endo-2-norbornyl-)-propan-1,2-diol |  | 2.0X
71 | OCC1(CO)CC=CCC1 [3-cyclohexane-1,1-dimethanol] |  | 7.0X
72 | OC1CC2CCC1C2O (stereo not drawn) [2,7-norbornanediol] |  | 3.5X
73 | OCC1(O)CC2CCC1C2 (stereo not drawn) [2-hydroxy-2-norbornanemethanol] |  | 45.0X

same assay, conditions: 5 mM (Table 19)

Row | Compound | Fold Induction of Tyrosinase Relative to Controls
74 | CC1(C)C2CCC(CO)[C@]1(O)C2 (stereo in doubt) [(1R)-(−)-trans-pinane-1,10-diol] | 36.8X
75 | C[C@@H]1CC[C@@H](C(C)(C)O)[C@H](O)C1 (relative stereo) [trans-p-menthane-3,8-diol] | 7.3X
76 | CC1(C)[C@@H]2C[C@@H](O)[C@@](C)(O)[C@H]1C2 [(1S,2S,3R,5S)-(+)-pinanediol] | 39.9X
77 | CC1CCC2CC1C2(C)C [(1S)-(−)-α-pinane] | 1.2X

same assay, conditions: 1 or 5 mM (FIG. 2)

Row | Compound | induction of tyrosinase
78 | C1CC2CCC1C2 [NBane, Norbornane] | 2 fold

same assay, conditions: 500 Units Catalase/ml

Row | Compound | Tyrosinase Relative to Control | Tyrosinase dpm/hr/ug Protein
79 | Catalase [reference compound] | 1.9X | 745 dpm/hr/ug Protein

same assay, conditions: 1000 Units Catalase/ml

Row | Compound | Tyrosinase Relative to Control | Tyrosinase dpm/hr/ug Protein
80 | Catalase [reference compound] | 1.7X | 691 dpm/hr/ug Protein

same assay, conditions: FIG. 2

Row | Compound | induction of tyrosinase relative to untreated or ethanol (ETOH) treated control S91 cells
81 | C1CC2CCC1C2 [NBane, Norbornane] | 2 fold

same assay, conditions: Table 19 data

Row | Compound | relative melanogenic potency in S91 cells (in words)
82 | 2,3-cis & trans-bornanediol | approximately twice as much melanogenic activity as (1R, 2R, 3S, 5R)-(−)-pinanediol
83 | CC1(C)C2CCC(CO)[C@]1(O)C2 (stereo in doubt) [(1R)-(−)-trans-pinane-1,10-diol] | almost-identical to that of (1R, 2R, 3S, 5R)-(−)-pinanediol
84 | CC1(C)C2CCC1(C)C(O)C2 (stereo not drawn) [borneol] | much less activity
85 | C=C(C)C1CC=C(C)CC1 (single isomer, unassigned; (+)) [R-(+)-limonene, (+)-p-mentha-1,8-diene] | little or no melanogenic activity

same assay, conditions: higher concentrations tested (Table 19)

Row | Compound | toxicity to S91 cells (in words)
86 | CC1C(O)CC2CC1C2(C)C (single isomer, unassigned; (-)) [(−)-isopinocampheol] | resulted in detachment of cells from culture dishes
